Reference: US12440479B2, “Prevention or treatment of chronic organ injury” (GEORG-AUGUST-UNIVERSITAET GOETTINGEN, STIFTUNG …, priority 2018, dated 2025)

Assays:
[1] = test system: chronically injured livers; assay: CCl4-induced liver fibrosis; assay type: in vivo, mice; conditions: 10 mg/kg subcutaneously per day starting one day prior
Method: Eight to twelve weeks-old C57BL/6 mice were intraperitoneally injected with 0.25 (first injection), 0.5 (second injection) and 1 mL/kg body weight CCI4 (25% v/v dissolved in sterile oil) twice a week (63). Mice were sacrificed after 42 days for further analyses. Mice were injected subcutaneously with 10 mg/kg body weight per day GPI-1046 (Santa Cruz Biotechnology, Dallas, USA) in DMSO once daily starting one day prior of surgery, control mice received equivalent volume of vehicle DMSO. For oral administration, GPI-1046 stock solution was diluted in glucose-water (5%) and orally applied on the basis of an average drinking volume of 3 mL and a body weight of 20 g per mouse. Three days after challenging with UUO, mice were treated orally with either vehicle buffer glucose (5%) or 30 mg/kg body weight per day GPI-1046, respectively. […] For morphometric analysis of interstitial fibrosis, fibrotic areas were assessed by using cellSens (Olympus, Tokyo, Japan) software. Ten visual fields were selected randomly for each MTS stained section at 200× magnification and the relative interstitial fibrotic area was evaluated by using a 10 mm2 graticule. Tubular damage was analysed after PAS stain and graded according to a semi-quantitative score of 0 to 3 (0: normal, 1: mild, 2: moderate, 3: severe) at 400× magnification in a total number of 100 tubules per section (158). […]

FKBP12/YY1 = FKBP12/YY1 (Mus musculus, UniProt P26883); assay: Co-immunoprecipitation after Yy1 pull-down in cultured TECs; assay type: cell-based; conditions: FK506 added to culture media, IP: Yy1
Method: (§1) CoIP was performed with Protein G Immunoprecipitation Kit (Roche, Basel, Switzerland). Protein A/G PLUS Agarose beads (Santa Cruz Biotechnology, Santa Cruz, USA) were used for the lysate pre-cleaning and pull-down. For each CoIP, 2×10^7 MCT cells have been used following the manufacturer's instructions. Yy1 (ab12132, Abcam Biochemicals, Cambridge, UK), Fkbp12 (ab2918, Abcam Biochemicals, Cambridge, UK), Arnt (3718, Cell Signaling, Danvers, USA), GFP (MA5-15256, Thermo Fisher Scientific, Waltham, USA) and myc-tag antibodies (2276, Cell Signaling, Danvers, USA) were used for immunoprecipitation, detection of co-immunoprecipitated Fkbp12 (ab12132, Abcam Biochemicals, Cambridge, UK), Hif1α ([MUT], Sigma, St. Louis, USA), Ahr (MA1-514, Thermo Fisher Scientific, Waltham, USA), GFP (MA5-15256, Thermo Fisher Scientific, Waltham, USA) and myc-tag (2276, Cell Signaling, Danvers, USA) was performed by immunoblotting.

ARNT/HIF1α, ARNT/AHR = assay: Co-immunoprecipitation using antibodies to ARNT in cultured TECs; assay type: cell-based, mouse; conditions: cultured TECs in response to FK506 (200 pM), IP: Arnt
Method: as §1

ARNT proximal promoter = assay: ChIP PCR after Yy1 pull-down; assay type: cell-based, mouse; conditions: cultured TECs, FK506 added to culture media
Method: DNA and protein interaction was performed with the OneDay ChIP Kit (Diagenode, Seraing, Belgium) according to the manufacturer's instructions. 2×10^7 MCT cells have been used for each ChIP reaction. Cell lysates were sonicated using an ultrasonic processor S-4000 (Misonix, Farmingdale, USA). Immunoprecipitation was performed with a ChIP grade antibody against Yy1 (ab12132, Abcam Biochemicals, Cambridge, UK) and Arnt (3718, Cell Signaling, Danvers, USA). Enriched DNA was analyzed by qRT-PCR with EpiTect ChIP qPCR primers for genomic Arnt (Qiagen, Hilden, Germany), oligonucleotide sequences for genomic Alk3 are listed in Table 10.

[2] = test system: human proximal tubular epithelial cells (HK2 cells); assay: Human TEC cultures (HK2 cells): ARNT/ALK3 and pSmad1/5/8; assay type: cell-based; conditions: picomolar FK506
Method: HK-2 (ATTC, Manassas, USA) are immortalized proximal tubule epithelial cells derived from normal adult human kidney. The murine proximal tubular epithelial cell line MCT was generated from the renal cortex of SJL mice (75). All cells were routinely tested negative for the presence of mycoplasma contamination. None of the cell lines used in this manuscript is listed in the ICLAC and NCBI Biosample database of misidentified cell lines. Cells were cultured in Dulbecco's modified Eagle's (DMEM, Gibco, Carlsbad, USA) medium supplemented with 100 µg/mL penicillin, 100 µg/mL streptomycin and 10% heat-inactivated fetal bovine serum (FBS, Sigma, St. Louis, USA) at 37° C. in 5% CO2. For RNA extractions, cells were seeded in 6 well culture plates at 10^5 cells per well in antibiotic free standard growth medium. […] Cells were harvested for further analysis 6 hours after incubation. To examine de novo protein syntheses, cells were again plated in 6 well culture plates as initially described and then pre-treated with the translation blocker Cycloheximide (CHX, 10 μg/mL, Sigma, St. Louis, USA). After one hour of incubation, 200 pM FK506 was applied for additional 6 hours. […] The relative expression levels were calculated using the equation 2^−ddCt.

FKBP12/YY1, sequence (P26883 whole entry): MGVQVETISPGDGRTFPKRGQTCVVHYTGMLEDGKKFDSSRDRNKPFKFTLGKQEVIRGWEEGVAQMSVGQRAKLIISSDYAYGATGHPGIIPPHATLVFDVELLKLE

SMILES: CCC(C)(C)C(=O)C(=O)N1CCC[C@H]1C(=O)OCCCc1cccnc1 [GPI-1046, 3-(3-pyridyl)-1-propyl-(2S)-1-(3,3-dimethyl-1,2-dioxopentyl)-2-pyrrolidinedine carboxylate]
- ALK3-dependent canonical BMP signaling responses [1]: equally effective
- protection from fibrogenesis [1]: equally effective

SMILES: C=CC[C@@H]1/C=C(\C)C[C@H](C)C[C@H](OC)[C@H]2O[C@@](O)(C(=O)C(=O)N3CCCC[C@H]3C(=O)O[C@H](/C(C)=C/[C@@H]3CC[C@@H](O)[C@H](OC)C3)[C@H](C)[C@@H](O)CC1=O)[C@H](C)C[C@@H]2OC [FK506, tacrolimus]
- FKBP12/YY1 interaction (FKBP12/YY1): not detectable
- ARNT/HIF1α or ARNT/AHR interaction (ARNT/HIF1α, ARNT/AHR): did not provide evidence
- YY1 binding to the ARNT proximal promoter (ARNT proximal promoter): reduced
- ARNT and ALK3 transcription [2]: equally induced
- nuclear pSmad1/5/8 [2]: nuclear accumulation of pSmad1/5/8
